# Values of other authors as cited in patent publication US12508229B2, “Method for preparing stable peptide formulations” (Amphastar Pharmaceuticals, Inc., priority 2019, dated 2025).
aqueous solubility (in words),Compound,aqueous solubility
freely soluble in water,OC[C@H]1O[C@@H]2O[C@H]3[C@H](O)[C@@H](O)[C@@H](O[C@H]4[C@H](O)[C@@H](O)[C@@H](O[C@H]5[C@H](O)[C@@H](O)[C@@H](O[C@H]6[C@H](O)[C@@H](O)[C@@H](O[C@H]7[C@H](O)[C@@H](O)[C@@H](O[C@H]8[C@H](O)[C@@H](O)[C@@H](O[C@H]9[C@H](O)[C@@H](O)[C@@H](O[C@H]1[C@H](O)[C@H]2O)O[C@@H]9CO)O[C@@H]8CO)O[C@@H]7CO)O[C@@H]6CO)O[C@@H]5CO)O[C@@H]4CO)O[C@@H]3CO [γ-cyclodextrin],–
higher aqueous solubility than α-CD,hydroxypropyl β-cyclodextrin [HP-ß-CD],–
–,"OC[C@H]1O[C@@H]2O[C@H]3[C@H](O)[C@@H](O)[C@@H](O[C@H]4[C@H](O)[C@@H](O)[C@@H](O[C@H]5[C@H](O)[C@@H](O)[C@@H](O[C@H]6[C@H](O)[C@@H](O)[C@@H](O[C@H]7[C@H](O)[C@@H](O)[C@@H](O[C@H]1[C@H](O)[C@H]2O)O[C@@H]7CO)O[C@@H]6CO)O[C@@H]5CO)O[C@@H]4CO)O[C@@H]3CO [α-CD, α-cyclodextrin]",about 5 wt %
